Data set [1] concerns Mycobacterium tuberculosis. Briefly: The compound was tested for its ability to inhibit the growth of Mycobacterium tuberculosis strain H37Rv. The format is functional.
The subject of data set [2] is Mycobacterium tuberculosis. Briefly: The compound was tested for its ability to inhibit the growth of Mycobacterium tuberculosis strain H6/99. The format is functional.
The subject of data set [3] is Mycobacterium avium. Briefly: The compound was tested for its ability to inhibit the growth of Mycobacterium avium. Type of data set: functional.
The nature of data set [4]: Solubility in DMSO:water(9:1). The format is physicochemical. The note with it: read-out: S.
Data set [5] has as its system Mycobacterium avium. Put plainly: The compound was tested for its ability to inhibit the growth of Mycobacterium avium; Resistant. Type of data set: functional, organism-based.
The subject of data set [6] is Mycobacterium tuberculosis. Briefly: The compound was tested for its ability to inhibit the growth of Mycobacterium tuberculosis strain H37Rv; Sensitive. The format is functional, organism-based.

What is called MIC is the lowest concentration found to suppress growth. A lower MIC goes with inhibition by little substance.

Each structure is given as a SMILES string. ≈ marks a conversion by molar mass, not a printed value.

As to `COCCOCCOCCN1CC23C4=C5C6=C7c8c9c%10c%11c%12c%13c%14c(c2c2c%15c%16c%17c%18c%19c(c5c5c%20c%21c%22c%23c(c8C%22C65)c%10c5c%11c6c%13c8c(c%15%14)c%16c%10c%18c%11c(c%20%19)c%21c%13c%23c5c5c%13c%11c%10c8c65)C%17C42)C%12C9C73C1COCCOCCOC` (stereo not given), the MIC in data set [1] was determined as 500 µg/mL (≈ 477 µM); in data set [2], 500 µg/mL (≈ 477 µM); in the data set with Mycobacterium avium [3], 50 µg/mL (≈ 47.7 µM). The solubility in data set [4] came out at 30 µM (≈ 31.4 µg/mL).
Consider `COCCOCCOCCN1CCCC1COCCOCCOC` (stereo not given), for which the MIC (in data set [1]; in data set [2]; against Mycobacterium avium [3]) was over 500 µg/mL in each case.
Take `COCCOCCOCC1CCCN1C` (stereo not given): the minimum inhibitory concentration (MIC) (in data set [1]; in data set [2]; against Mycobacterium avium [3]) was over 500 µg/mL throughout.
In the case of `COCCOCCOCCN1CCCC1`, the minimum inhibitory concentration (MIC) (in data set [1]; in data set [2]; against Mycobacterium avium [3]) was over 500 µg/mL throughout.
With `COCCOCCOCC[N+]1(C)CC23C4=C5C6=C7c8c9c%10c%11c%12c%13c%14c(c2c2c%15c%16c%17c%18c%19c(c5c5c%20c%21c%22c%23c(c8C%22C65)c%10c5c%11c6c%13c8c(c%15%14)c%16c%10c%18c%11c(c%20%19)c%21c%13c%23c5c5c%13c%11c%10c8c65)C%17C42)C%12C9C73C1COCCOCCOC.[I-]` (stereo not given), the MIC stood at 50 µg/mL in data set [1], 5 µg/mL in data set [2] and 50 µg/mL with Mycobacterium avium [3]. Further, the solubility in data set [4] was found to be 95 µM.
As for `COCCOCCOCC1N(C)CC23C4=C5C6=C7c8c9c%10c%11c%12c%13c%14c(c2c2c%15c%16c%17c%18c%19c(c5c5c%20c%21c%22c%23c(c8C%22C65)c%10c5c%11c6c%13c8c(c%15%14)c%16c%10c%18c%11c(c%20%19)c%21c%13c%23c5c5c%13c%11c%10c8c65)C%17C42)C%12C9C713` (stereo not given), the solubility in data set [4] was found to be 15 µM (≈ 13.7 µg/mL).
Still for that read-out and setting: the value for `COCCOCCOCCN1CC23C4=C5C6=C7c8c9c%10c%11c%12c%13c%14c(c2c2c%15c%16c%17c%18c%19c(c5c5c%20c%21c%22c%23c(c8C%22C65)c%10c5c%11c6c%13c8c(c%15%14)c%16c%10c%18c%11c(c%20%19)c%21c%13c%23c5c5c%13c%11c%10c8c65)C%17C42)C%12C9C73C1` (stereo not given) was 15 µM (≈ 13.7 µg/mL).
As for `COCCOCCOCC[N+]1(C)CCCC1COCCOCCOC.[I-]` (stereo not given), the MIC (in data set [1]; in data set [2]; against Mycobacterium avium [3]) was over 500 µg/mL throughout.
For the molecule `COCCOCCOCC1C23C4=C5C6=C7C8c9c(c%10c%11c%12c%13c%14c%15c(c4c4c%16c%17c%18c%19c%20c(c6c6c%21c%22c(c%23c9c%11c9c%23c%11c%22c%22c(c%20%21)c%19c%19c%17c%17c(c%15%16)c%14c%14c%12c9c9c%11c%22c%19c%17c%149)C68)C5C4%18)C2C%10%13)C73C[N+]1(C)C.[I-]` (stereo not given), the figures for the MIC (in data set [1]; in data set [2]; against Mycobacterium avium [3]) were 50 µg/mL, 5 µg/mL and 500 µg/mL, respectively. Besides, in data set [4], the solubility came out at 15 µM.
Turning to `NNC(=O)c1ccncc1`, the results for the MIC result (against Mycobacterium avium [5]; in data set [6]) were “Resistant” and “Sensitive”, respectively.
For `CO[C@H]1/C=C/O[C@@]2(C)Oc3c(C)c(O)c4c(O)c(c(/C=N/N5CCN(C)CC5)c(O)c4c3C2=O)NC(=O)/C(C)=C\C=C\[C@H](C)[C@H](O)[C@@H](C)[C@@H](O)[C@@H](C)[C@H](OC(C)=O)[C@@H]1C`, the figures for the minimum inhibitory concentration (MIC) entry (in the data set on Mycobacterium avium [5]; in data set [6]) were “Resistant” and “Sensitive”, respectively.
With `COCCOCCOCC[N+]1(C)CC23C4=C5C6=C7c8c9c%10c%11c%12c%13c%14c(c2c2c%15c%16c%17c%18c%19c(c5c5c%20c%21c%22c%23c(c8C%22C65)c%10c5c%11c6c%13c8c(c%15%14)c%16c%10c%18c%11c(c%20%19)c%21c%13c%23c5c5c%13c%11c%10c8c65)C%17C42)C%12C9C73C1.[I-]` (stereo not given), the MIC in data set [1] stood at 50 µg/mL; in data set [2], 500 µg/mL; in the data set with Mycobacterium avium [3], 500 µg/mL. The solubility in data set [4] was 43 µM.
As for `COCCOCCOCC1CCC[N+]1(C)C.[I-]` (stereo not given), the MIC (in data set [1]; in data set [2]; in the data set with Mycobacterium avium [3]) was over 500 µg/mL throughout.
Regarding `COCCOCCOCC[N+]1(C)CCCC1.[I-]`, the MIC (in data set [1]; in data set [2]; against Mycobacterium avium [3]) was over 500 µg/mL in each case.

The values are drawn from ChEMBL document CHEMBL1132871, “Antimycobacterial activity of ionic fullerene derivatives” (Bioorg Med Chem Lett, 2000).
